US10954269B2, “Anti-inflammatory tripeptides” (Dr. August Wolff Gmbh & Co. KG Arzneimittel, priority 2013, dated 2021)

Tests used:
primary human T-cells = test: Cytokine secretion on protein level in activated primary human T-cells (13-plex FACS / Luminex, supernatant); format: cell-based; details: for IL-1 cytokine concentration / IL-2 cytokine concentration / IL-4 cytokine concentration / IL-5 cytokine concentration / IL-6 cytokine concentration / IL-9 cytokine concentration / IL-10 cytokine concentration / IL-12p70 cytokine concentration / IL-13 cytokine concentration / IL-17 cytokine concentration / IL-22 cytokine concentration / TNF-α cytokine concentration / INF-α cytokine concentration: substance 10^−9M
Summary of the method: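 PMA/Ionomycin- or IFN-γ-activated cells (48 h) treated with tripeptides; supernatant 13-plex FACS at 48 h and 72 h post-stimulation. Luminex run: PMA/Ionomycin plus compound at 10^−7, 10^−9, 10^−11 M; IFN-γ, IL-17, IL-10 for T cells, IFN-γ for HaCaT.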

[1] = tested on: human keratinocyte cell line (HaCaT); test: Cytokine secretion on protein level in activated human keratinocyte cell line HaCaT (13-plex FACS / Luminex, supernatant); format: cell-based; details: for IL-1 cytokine concentration / IL-2 cytokine concentration / IL-4 cytokine concentration / IL-5 cytokine concentration / IL-6 cytokine concentration / IL-9 cytokine concentration / IL-10 cytokine concentration / IL-12p70 cytokine concentration / IL-13 cytokine concentration / IL-17 cytokine concentration / IL-22 cytokine concentration / TNF-α cytokine concentration / IFN-γ cytokine concentration: substance 10^−9M
Summary of the method: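 Cytokine protein in supernatant is read by multiplex FACS or Luminex. Tripeptide-treated HaCaT cells or blood-derived human T-cells are stimulated beforehand with PMA/Ionomycin or IFN-γ. The most relevant analytes are IL-1, IL-2, IL-6, IL-12p70, IL-17, IFN-γ and TNF-α, sampled 48 h and 72 h after stimulation.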

primary murine T-cells = test: Cytokine secretion on protein level in activated primary murine T-cells (13-plex FACS / Luminex, supernatant); format: cell-based, C57BL/6 mice; details: substance 10^−9M
Summary of the method: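 T-cells from secondary lymphatic organs of naïve C57BL/6 mice, stimulated with PMA/Ionomycin or IFN-γ; supernatant cytokines measured by 13-plex FACS 48 h and 72 h after stimulation. In another run, PMA/Ionomycin-stimulated cells received compounds at 10^−7, 10^−9 and 10^−11 M, with IFN-γ, IL-17 and IL-10 measured by Luminex.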

[2] = primary human T-cells stimulated with IFN-γ
[3] = primary human T-cells stimulated with PBS
[4] = primary human T-cells stimulated with PMA/Ionomycin
[5] = HaCaT stimulated with PMA/Ionomycin
[6] = primary murine T-cells stimulated with IFN-γ
[7] = primary murine T-cells stimulated with PBS
[8] = primary murine T-cells stimulated with PMA/Ionomycin

N^α,N^α-dimethyl-(L)-Nle-(D)-Pro-N^α-methyl-(L)-Thr-OH [Example 6]
secretion / expression of pro-inflammatory cytokines (supernatant) (primary human T-cells; activated primary human T-cells): decreased expression | IL-1 cytokine concentration (primary human T-cells; [2]): 0 pg/mL | IL-2 cytokine concentration (primary human T-cells; [2]): 0 pg/mL | IL-4 cytokine concentration (primary human T-cells; [2]): 76.04 pg/mL | IL-5 cytokine concentration (primary human T-cells; [2]): 0 pg/mL | IL-6 cytokine concentration (primary human T-cells; [2]): 45.83 pg/mL | IL-9 cytokine concentration (primary human T-cells; [2]): 0 pg/mL | IL-10 cytokine concentration (primary human T-cells; [2]): 51.86 pg/mL | IL-12p70 cytokine concentration (primary human T-cells; [2]): 0 pg/mL | IL-13 cytokine concentration (primary human T-cells; [2]): 46.95 pg/mL | IL-17 cytokine concentration (primary human T-cells; [2]): 36.76 pg/mL | IL-22 cytokine concentration (primary human T-cells; [2]): 0 pg/mL | TNF-α cytokine concentration (primary human T-cells; [2]): 17.44 pg/mL | IL-1 cytokine concentration (primary human T-cells; [3]): 107.12 pg/mL | IL-2 cytokine concentration (primary human T-cells; [3]): 114.93 pg/mL | IL-5 cytokine concentration (primary human T-cells; [3]): 12.74 pg/mL | IL-6 cytokine concentration (primary human T-cells; [3]): 105.53 pg/mL | IL-9 cytokine concentration (primary human T-cells; [3]): 8.15 pg/mL | IL-10 cytokine concentration (primary human T-cells; [3]): 92.62 pg/mL | IL-12p70 cytokine concentration (primary human T-cells; [3]): 0 pg/mL | IL-13 cytokine concentration (primary human T-cells; [3]): 0 pg/mL | IL-17 cytokine concentration (primary human T-cells; [3]): 113.52 pg/mL | IL-22 cytokine concentration (primary human T-cells; [3]): 0 pg/mL | INF-α cytokine concentration (primary human T-cells; [3]): 0 pg/mL | TNF-α cytokine concentration (primary human T-cells; [3]): 28.11 pg/mL | IL-1 cytokine concentration (primary human T-cells; [4]): 533.57 pg/mL | IL-2 cytokine concentration (primary human T-cells; [4]): 2005.81 pg/mL | IL-4 cytokine concentration (primary human T-cells; [4]): 87.24 pg/mL | IL-5 cytokine concentration (primary human T-cells; [4]): 312.5 pg/mL | IL-6 cytokine concentration (primary human T-cells; [4]): 1194.58 pg/mL | IL-9 cytokine concentration (primary human T-cells; [4]): 238.28 pg/mL | IL-10 cytokine concentration (primary human T-cells; [4]): 999.32 pg/mL | IL-12p70 cytokine concentration (primary human T-cells; [4]): 0 pg/mL | IL-13 cytokine concentration (primary human T-cells; [4]): 1050.19 pg/mL | IL-17 cytokine concentration (primary human T-cells; [4]): 1388.88 pg/mL | IL-22 cytokine concentration (primary human T-cells; [4]): 0 pg/mL | INF-α cytokine concentration (primary human T-cells; [4]): 7597.87 pg/mL | TNF-α cytokine concentration (primary human T-cells; [4]): 2638.52 pg/mL | IL-1 cytokine concentration ([1]; HaCaT stimulated with IFN-γ): 0 pg/mL | IL-2 cytokine concentration ([1]; HaCaT stimulated with IFN-γ): 17.47 pg/mL | IL-4 cytokine concentration ([1]; HaCaT stimulated with IFN-γ): 0 pg/mL | IL-5 cytokine concentration ([1]; HaCaT stimulated with IFN-γ): 0 pg/mL | IL-6 cytokine concentration ([1]; HaCaT stimulated with IFN-γ): 202.37 pg/mL | IL-9 cytokine concentration ([1]; HaCaT stimulated with IFN-γ): 0 pg/mL | IL-10 cytokine concentration ([1]; HaCaT stimulated with IFN-γ): 0 pg/mL | IL-12p70 cytokine concentration ([1]; HaCaT stimulated with IFN-γ): 0 pg/mL | IL-13 cytokine concentration ([1]; HaCaT stimulated with IFN-γ): 1872.11 pg/mL | IL-17 cytokine concentration ([1]; HaCaT stimulated with IFN-γ): 0 pg/mL | IL-22 cytokine concentration ([1]; HaCaT stimulated with IFN-γ): 0 pg/mL | TNF-α cytokine concentration ([1]; HaCaT stimulated with IFN-γ): 0 pg/mL | IFN-γ cytokine concentration ([1]; HaCaT stimulated with PBS): 0 pg/mL | IL-1 cytokine concentration ([1]; HaCaT stimulated with PBS): 25.45 pg/mL | IL-2 cytokine concentration ([1]; HaCaT stimulated with PBS): 0 pg/mL | IL-4 cytokine concentration ([1]; HaCaT stimulated with PBS): 91.99 pg/mL | IL-5 cytokine concentration ([1]; HaCaT stimulated with PBS): 0 pg/mL | IL-6 cytokine concentration ([1]; HaCaT stimulated with PBS): 52.48 pg/mL | IL-9 cytokine concentration ([1]; HaCaT stimulated with PBS): 0 pg/mL | IL-10 cytokine concentration ([1]; HaCaT stimulated with PBS): 57.95 pg/mL | IL-12p70 cytokine concentration ([1]; HaCaT stimulated with PBS): 0 pg/mL | IL-13 cytokine concentration ([1]; HaCaT stimulated with PBS): 0 pg/mL | IL-17 cytokine concentration ([1]; HaCaT stimulated with PBS): 26.72 pg/mL | IL-22 cytokine concentration ([1]; HaCaT stimulated with PBS): 0 pg/mL | TNF-α cytokine concentration ([1]; HaCaT stimulated with PBS): 8.21 pg/mL | IFN-γ cytokine concentration [1, 5]: 0 pg/mL | IL-1 cytokine concentration [1, 5]: 62.07 pg/mL | IL-2 cytokine concentration [1, 5]: 16.53 pg/mL | IL-4 cytokine concentration [1, 5]: 0 pg/mL | IL-5 cytokine concentration [1, 5]: 0 pg/mL | IL-6 cytokine concentration [1, 5]: 248.33 pg/mL | IL-9 cytokine concentration [1, 5]: 3.71 pg/mL | IL-10 cytokine concentration [1, 5]: 64.03 pg/mL | IL-12p70 cytokine concentration [1, 5]: 0 pg/mL | IL-13 cytokine concentration [1, 5]: 0 pg/mL | IL-17 cytokine concentration [1, 5]: 21.52 pg/mL | IL-22 cytokine concentration [1, 5]: 0 pg/mL | TNF-α cytokine concentration [1, 5]: 5.37 pg/mL | secretion / expression of pro-inflammatory cytokines (supernatant) ([1]; activated human keratinocytes): decreased expression | IL-1 cytokine concentration (primary murine T-cells; [6]): 95.15 pg/mL | IL-2 cytokine concentration (primary murine T-cells; [6]): 181.25 pg/mL | IL-4 cytokine concentration (primary murine T-cells; [6]): 156.84 pg/mL | IL-5 cytokine concentration (primary murine T-cells; [6]): 517.47 pg/mL | IL-6 cytokine concentration (primary murine T-cells; [6]): 223.98 pg/mL | IL-10 cytokine concentration (primary murine T-cells; [6]): 1782.7 pg/mL | IL-13 cytokine concentration (primary murine T-cells; [6]): 0 pg/mL | IL-17 cytokine concentration (primary murine T-cells; [6]): 189.88 pg/mL | IL-21 cytokine concentration (primary murine T-cells; [6]): 251.06 pg/mL | IL-22 cytokine concentration (primary murine T-cells; [6]): 73.27 pg/mL | IL-27 cytokine concentration (primary murine T-cells; [6]): 0 pg/mL | TNF-α cytokine concentration (primary murine T-cells; [6]): 40.87 pg/mL | IFN-γ cytokine concentration (primary murine T-cells; [7]): 546.71 pg/mL | IL-1 cytokine concentration (primary murine T-cells; [7]): 106.27 pg/mL | IL-2 cytokine concentration (primary murine T-cells; [7]): 204.71 pg/mL | IL-4 cytokine concentration (primary murine T-cells; [7]): 39.23 pg/mL | IL-5 cytokine concentration (primary murine T-cells; [7]): 407.29 pg/mL | IL-6 cytokine concentration (primary murine T-cells; [7]): 170.46 pg/mL | IL-10 cytokine concentration (primary murine T-cells; [7]): 1391.3 pg/mL | IL-13 cytokine concentration (primary murine T-cells; [7]): 0 pg/mL | IL-17 cytokine concentration (primary murine T-cells; [7]): 0 pg/mL | IL-21 cytokine concentration (primary murine T-cells; [7]): 0 pg/mL | IL-22 cytokine concentration (primary murine T-cells; [7]): 16.55 pg/mL | IL-27 cytokine concentration (primary murine T-cells; [7]): 108.06 pg/mL | TNF-α cytokine concentration (primary murine T-cells; [7]): 0 pg/mL | IFN-γ cytokine concentration (primary murine T-cells; [8]): 8164.35 pg/mL | IL-1 cytokine concentration (primary murine T-cells; [8]): 486.85 pg/mL | IL-2 cytokine concentration (primary murine T-cells; [8]): 218.69 pg/mL | IL-4 cytokine concentration (primary murine T-cells; [8]): 164.69 pg/mL | IL-5 cytokine concentration (primary murine T-cells; [8]): 380.37 pg/mL | IL-6 cytokine concentration (primary murine T-cells; [8]): 237.95 pg/mL | IL-10 cytokine concentration (primary murine T-cells; [8]): 988.64 pg/mL | IL-13 cytokine concentration (primary murine T-cells; [8]): 0 pg/mL | IL-17 cytokine concentration (primary murine T-cells; [8]): 200.32 pg/mL | IL-21 cytokine concentration (primary murine T-cells; [8]): 470.65 pg/mL | IL-22 cytokine concentration (primary murine T-cells; [8]): 85.67 pg/mL | IL-27 cytokine concentration (primary murine T-cells; [8]): 95.51 pg/mL | TNF-α cytokine concentration (primary murine T-cells; [8]): 72.81 pg/mL
